ChEMBL document CHEMBL4699652, “Proline Hinged Amphipathic α-Helical Peptide Sensitizes Gram-Negative Bacteria to Various Gram-Positive Antibiotics” (J Med Chem, 2020)
Active and inactive are the calls of the source. No cut-off for these calls is given here.

Assays:
Cell membrane [1] = test: Induction of inner membrane permeability in Escherichia coli at 5 uM incubated for 1 hr by SYTOX Green-staining based flow cytometry analysis; type: subcellular
Cell membrane [2] = test: Induction of outer membrane re-arragenemnts in Escherichia coli D21f2 incubated for 4 mins by NPN uptake assay; type: subcellular
Cell membrane [3] = test: Induction of inner membrane permeability in Escherichia coli assessed as cytoplasmic beta-galactosidase release at 5 uM using ONPG
Cell membrane [4] = test: Induction of outer membrane permeability in Escherichia coli assessed as periplasmic-beta-lactamase release at 5 uM using CENTA; type: subcellular
Cell membrane [5] = test: Induction of outer membrane re-arragenemnts in Escherichia coli ATCC 25922 incubated for 4 mins by NPN uptake assay; type: subcellular
Escherichia coli [6] = test: Induction of cell killing in Escherichia coli assessed as time needed for bacterial destruction at 128 ug/ml; type: functional; conditions: dose 128 µg/ml
Erythrocyte = test: Hemolytic activity in human red blood cells assessed as induction of hemoglobin release incubated for 4 hrs by microplate reader based assay; type: cell-based
Escherichia coli [7] = test: Antimicrobial activity against Escherichia coli ATCC 25922 assessed as inhibition of bacterial growth incubated for 18 hrs by CLSI based method; type: functional
Staphylococcus aureus = test: Antimicrobial activity against Staphylococcus aureus ATCC 29213 assessed as inhibition of bacterial growth incubated for 18 hrs by CLSI based method; type: functional
[8] = Induction of cell membrane permeability in POPE/POPG assessed as calcein leakage at 2 to 8 uM; conditions: dose microM 2-8
Escherichia coli [9] = test: Binding affinity to inner membrane using POPE/POPG (7/3) by SPR assay
Escherichia coli [10] = test: Binding affinity to cell membrane using POPC/cholesterol (8/2) by SPR assay
Escherichia coli [11] = test: Induction of cell lysis in Escherichia coli at 5 uM by transmission electron microscopy; type: functional, organism-based
Escherichia coli [12] = test: Binding affinity to outer membrane in POPE/POPG lipid layers containing LPS by SPR assay
Cell membrane [13] = test: Induction of cell membrane fluidity changes in Escherichia coli ATCC 25922 by Laurdan-dye based fluorescence assay; type: subcellular
Escherichia coli [14] = test: Antimicrobial activity against Escherichia coli ATCC 25922 assessed as reduction in cell viability at 10 to 10000 uM by propidium iodide staining based assay; type: functional, organism-based; conditions: dose microM 10-10000
Cell membrane [15] = test: Induction of membrane permeability in Escherichia coli assessed as increase in fine surface roughness at 25 uM by atomic force microscopy; type: subcellular

| Molecule | Activity (Cell membrane [1]) | Activity (Cell membrane [2]) | Activity (Cell membrane [3]) | Activity (Cell membrane [4]) | Activity (Cell membrane [5]) | HC10 (Erythrocyte) | MIC (Escherichia coli [7]) | MIC (Staphylococcus aureus) | further results |
| --- | --- | --- | --- | --- | --- | --- | --- | --- | --- |
| CC[C@H](C)[C@H](NC(=O)CN)C(=O)NCC(=O)N[C@@H](C)C(=O)N[C@H](C(=O)N[C@@H](CC(C)C)C(=O)N[C@@H](CCCCN)C(=O)N[C@H](C(=O)N[C@@H](CC(C)C)C(=O)N[C@H](C(=O)N[C@H](C(=O)NCC(=O)N[C@@H](CC(C)C)C(=O)N1CCC[C@H]1C(=O)N[C@@H](C)C(=O)N[C@@H](CC(C)C)C(=O)N[C@H](C(=O)N[C@@H](CO)C(=O)N[C@@H](Cc1c[nH]c2ccccc12)C(=O)N[C@H](C(=O)N[C@@H](CCCCN)C(=O)N[C@@H](CCCNC(=N)N)C(=O)N[C@@H](CCCCN)C(=O)N[C@@H](CCCNC(=N)N)C(=O)N[C@@H](CCC(N)=O)C(=O)N[C@@H](CCC(N)=O)C(N)=O)[C@@H](C)CC)[C@@H](C)CC)[C@@H](C)O)[C@@H](C)O)C(C)C)C(C)C [MELITTIN] | inactive | inactive | inactive | inactive | Active |  |  |  | Time (Escherichia coli [6]): 4 h |
| Ac-KLLKLLKKLLKLLK-NH2 |  |  |  |  |  | 0.625 µM | 20 µM | 10 µM |  |
| Ac-KLLKLLKKLLKLPK-NH2 |  |  |  |  |  | 40 µM | 10 µM | 10 µM |  |
| Ac-KLLKLLKKLLKPLK-NH2 |  |  |  |  |  | 40 µM | 20 µM | 10 µM |  |
| Ac-KLLKLLKKLPKLLK-NH2 |  |  |  |  |  | 80 µM | 40 µM | 40 µM |  |
| Ac-KLLKLLKPLLKLLK-NH2 |  |  |  |  |  | 2.5 µM | 10 µM | 2.5 µM |  |
| Ac-KLLKLLPKLLKLLK-NH2 |  |  |  |  |  | 5 µM | 10 µM | 5 µM |  |
| Ac-KLLKLPKKLLKLLK-NH2 | inactive | inactive | inactive | inactive | Active | 640 µM | ≥ 80 µM | > 80 µM |  |
| Ac-KLLKPLKKLLKLLK-NH2 |  |  |  |  |  | 80 µM | 20 µM | 20 µM |  |
| Ac-KLPKLLKKLLKLLK-NH2 |  |  |  |  |  | 10 µM | 10 µM | 10 µM |  |
| Ac-KPLKLLKKLLKLLK-NH2 |  |  |  |  |  | 5 µM | 5 µM | 5 µM |  |
| Ac-LKKLLKLLKKLLKL-NH2 |  |  |  |  |  | 5 µM | 10 µM | 10 µM |  |
| Ac-LKKLLKLLKKLPKL-NH2 | inactive | inactive | inactive | inactive | Active | 40 µM | 5 µM | 10 µM | Activity [8]: inactive; Activity (Escherichia coli [9]): Active; Activity (Escherichia coli [10]): inactive; Activity (Escherichia coli [11]): Active; Activity (Escherichia coli [12]): inactive |
| Ac-LKKLLKLLKPLLKL-NH2 |  |  |  |  |  | 5 µM | 5 µM | 2.5 µM |  |
| Ac-LKKLLKLLPKLLKL-NH2 | inactive | inactive | inactive | inactive | Active | 5 µM | 5 µM | 2.5 µM | Activity [8]: inactive; Activity (Escherichia coli [11]): Active |
| Ac-LKKLLKLPKKLLKL-NH2 | inactive | inactive | inactive | inactive | Active | 640 µM | 40 µM | > 80 µM |  |
| Ac-LKKLLKPLKKLLKL-NH2 |  |  |  |  |  | 160 µM | 20 µM | 20 µM |  |
| Ac-LKKLLPLLKKLLKL-NH2 |  |  |  |  |  | 1.25 µM | 10 µM | 2.5 µM |  |
| Ac-LKKLPKLSKKLLKL-NH2 |  |  |  |  |  | 80 µM | 2.5 µM | 10 µM |  |
| Ac-LKKPLKLGKKLLKL-NH2 |  |  |  |  |  | 160 µM | 5 µM | 40 µM |  |
| COLISTIN | inactive | inactive | inactive | inactive | Active |  |  |  | Activity (Cell membrane [13]): Active; Activity (Escherichia coli [14]): Active |
| H-KLAKLAKKPLKLAK-OH | inactive | inactive | inactive | inactive | Active |  |  |  | Activity (Cell membrane [15]): inactive |
| H-LKKLLKLLKKPLKL-NH2 | inactive | inactive | inactive | inactive | Active | 320 µM | 20 µM | 40 µM |  |
